This is an account of results in patent US20250319145A1, “EXTRACT WITH ANTI-INFLAMMATORY EFFECT” (Medizinische Universitat Innsbruck, priority 2021, published 2025).

The target in one assay is T1, IKKβ Kinase (Homo sapiens, UniProt O14920).
T1 construct: made in house; host or cells: HEK 293T cells (transient transfection, anti-HA immunoprecipitation)
T1 sequence (O14920 1-756): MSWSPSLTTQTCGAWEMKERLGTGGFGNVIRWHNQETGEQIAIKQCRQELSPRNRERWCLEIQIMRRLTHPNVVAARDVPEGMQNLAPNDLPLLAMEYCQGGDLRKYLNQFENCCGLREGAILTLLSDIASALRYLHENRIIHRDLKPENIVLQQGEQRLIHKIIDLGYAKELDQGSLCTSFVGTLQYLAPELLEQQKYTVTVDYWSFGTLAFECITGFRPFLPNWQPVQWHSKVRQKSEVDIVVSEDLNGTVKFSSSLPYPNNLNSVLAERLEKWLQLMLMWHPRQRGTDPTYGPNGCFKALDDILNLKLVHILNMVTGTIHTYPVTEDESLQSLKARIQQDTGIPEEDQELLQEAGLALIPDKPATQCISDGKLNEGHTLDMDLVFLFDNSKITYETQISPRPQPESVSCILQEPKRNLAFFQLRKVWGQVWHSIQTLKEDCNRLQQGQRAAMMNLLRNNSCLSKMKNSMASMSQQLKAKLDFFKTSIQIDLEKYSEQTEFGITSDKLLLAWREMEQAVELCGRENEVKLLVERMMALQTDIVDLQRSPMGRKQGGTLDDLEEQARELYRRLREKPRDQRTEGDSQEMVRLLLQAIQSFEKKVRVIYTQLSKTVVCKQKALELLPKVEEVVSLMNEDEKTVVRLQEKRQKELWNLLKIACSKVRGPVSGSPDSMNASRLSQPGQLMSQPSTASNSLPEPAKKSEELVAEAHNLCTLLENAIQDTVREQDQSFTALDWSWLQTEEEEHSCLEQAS
Briefly: In vitro immunoprecipitation IKKβ kinase assay with IκBα as substrate (autoradiography). The class given is biochemical. The conditions noted are these: 1.6, 2.8 and 6% vs DMSO control; FIG. 9. The procedure:
The IKK complex subunit IKKβ is responsible for the phosphorylation of IκBα and it's targeting for degradation upon TNFα induction. Therefore, it has been investigated whether the extracts inhibit IKKβ. […] The kinase assay was based on quantifying the activity of the kinase IKKβ via autoradiography.
Specifically, HEK 293T cells were transfected with the HA-IKKβ construct. Cells were washed with ice-cold phosphate-buffered saline (PBS) and extracted with lysis buffer containing 50 mM HEPES (pH 7.5), 150 mM NaCl, 1% (vol/vol) Nonidet P-40, 2 mM EDTA, 50 mM sodium fluoride, 10 mM sodium pyrophosphate, 1 mM sodium orthovanadate, 50 μg of leupeptin (Boehringer Mannheim)/ml, 0.5% aprotinin (Sigma), 1 mM phenylmethylsulphonyl fluoride (Sigma), and 3 mM benzamidine (Sigma). 300 ng of total protein were immunoprecipitated with 2 μg of anti-HA antibodies and immune complexes were collected using protein A-Sepharose beads (Amersham Pharmacia Biotech). Immune complexes were washed three times with lysis buffer followed by a single wash with high salt buffer (500 mM NaCl) and kinase assay buffer (50 mM HEPES [pH 7.5], 10 mM MgCl2, 1 mM dithiothreitol, 10 mM β-glycerophosphate). […] Samples were subjected to 10% SDS-PAGE, and the amount of ^32P incorporated into the IKKβ and IκBα proteins was assessed by autoradiography (FIG. 4). […]

The subject of assay [1] is reconstructed human epidermis (RHE)-models. Briefly: Cytokine release in reconstituted human epidermis model after TNFα. The class given is cell-based. The conditions noted are these: 0.75 ng/ml TNFα, extract 10 μg/ml in medium, 24 h and 48 h. The procedure: The bioactivity of the extract of Chromochloris zofingiensis (2022C) was tested in human epidermis equivalents by measuring cytokine secretion in response to TNFα treatment.
The extract was tested in a physiological relevant set-up represented by reconstructed human epidermis (RHE)-models (FIG. 2), (W. Pixelproduction, epiCS—CellSystems GmbH. [Online]. Available: https://cellsystems.de/cells-and-media/c/epics (accessed: Oct. 2 2020)), purchased from Cell Systems. epiCS RHE models are validated for the classification of compounds according to the OECD test guideline 431. […]
The secretion of relevant pro-inflammatory cytokines of RHE-models (from Cell Systems Biotechnology), were quantified after induction with 0.75 ng/ml TNFα and treatment with DMSO, WFA or the extract of Chromochloris zofingiensis in a concentration of 10 μg/ml in DMSO.
After culturing the keratinocyte cell layer in cell culture inserts (0.6 cm^2) under submerged conditions, the tissues were lifted to the air-liquid interphase to induce differentiation, epithelial stratification and cornification. […] The cytokine release was evaluated 24 h and 48 h after the TNFα treatment. The secretion of the cytokines IL-1ra, RANTES, IL-1α, GM-CSF, TSLP, IP-10, IL-18, IL-6, IL-8, IL-10, MCP-1, IL-1β, TNFα and INF-β was measured. […]

In the case of “diacylglyceryl-N,N,N-trimethylhomoserine [DGTS]”, the “direct inhibition of the IKKβ kinase” value at IKKβ Kinase was “no inhibition”.

For `CC1=C(CO)C(=O)O[C@@H]([C@@H](C)[C@H]2CC[C@H]3[C@@H]4C[C@H]5O[C@]56[C@@H](O)C=CC(=O)[C@]6(C)[C@H]4CC[C@]23C)C1` [WFA, Withaferin A], the “release of IL-10, MCP-1, IP-10 and RANTES” value in assay [1] is on record as “substantial decrease”.
